Measured values published in patent US10214527B2, “Triazolopyridine inhibitors of myeloperoxidase” (priority 2015, dated 2019).

Each molecule was assayed against T1, myeloperoxidase (MPO) (Homo sapiens (Human), UniProt P05164) (assay: MPO chlorination assay (APF assay)). Conditions: MPO chlorination, potency range class; read-out: APF Assay IC50 value.
Type: biochemical

T1 sequence (P05164 49-745): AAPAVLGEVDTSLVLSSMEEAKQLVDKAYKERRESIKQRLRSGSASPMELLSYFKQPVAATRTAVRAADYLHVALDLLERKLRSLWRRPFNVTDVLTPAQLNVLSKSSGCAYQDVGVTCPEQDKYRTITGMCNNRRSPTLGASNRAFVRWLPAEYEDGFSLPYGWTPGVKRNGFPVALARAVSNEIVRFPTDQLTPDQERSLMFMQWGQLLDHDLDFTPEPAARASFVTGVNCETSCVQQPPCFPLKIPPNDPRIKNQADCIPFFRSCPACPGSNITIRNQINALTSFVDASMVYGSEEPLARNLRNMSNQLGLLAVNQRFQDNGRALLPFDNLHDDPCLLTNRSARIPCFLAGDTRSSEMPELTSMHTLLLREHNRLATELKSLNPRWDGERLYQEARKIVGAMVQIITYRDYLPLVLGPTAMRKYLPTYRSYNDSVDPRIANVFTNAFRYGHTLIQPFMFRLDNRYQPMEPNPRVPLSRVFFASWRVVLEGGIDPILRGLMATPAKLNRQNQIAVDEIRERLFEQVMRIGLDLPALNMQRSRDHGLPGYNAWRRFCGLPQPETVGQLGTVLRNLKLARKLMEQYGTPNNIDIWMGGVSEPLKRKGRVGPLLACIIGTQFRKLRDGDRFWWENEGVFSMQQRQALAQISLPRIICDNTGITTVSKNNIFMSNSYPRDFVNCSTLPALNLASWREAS

IC50 | Structure (SMILES)
101 to 999 nM | Nc1cc(Cc2cccc(F)c2F)c2nn[nH]c2n1 [Example 44, 7-(2,3-difluorobenzyl)-3H-[1,2,3] triazolo[4,5-b]pyridin-5-amine]
101 to 999 nM | Nc1cc(Cc2cccc3nn(Cc4ccccc4)cc23)c2nn[nH]c2n1 [Example 66, 7-((2-Benzyl-2H-indazol-4-yl)methyl)-3H-[1,2,3]triazolo[4,5-b]pyridin-5-amine]
101 to 999 nM | Nc1cc(Cc2ccc(-c3ccccc3)cc2)c2nn[nH]c2n1 [Example 37, 7-([1,1′-biphenyl]-4-ylmethyl)-3H-[1,2,3]triazolo [4,5-b]pyridin-5-amine]
1000 to 10000 nM | COc1cccc(Cc2cc(N)nc3[nH]nnc23)n1 [Example 51, 7-((6-Methoxypyridin-2-yl)methyl)-3H-[1,2,3]triazolo[4,5-b]pyridin-5-amine]
1 to 100 nM | Nc1cc(Cc2cccc3c2ccn3Cc2cccc(OCc3ccccc3)c2)c2nn[nH]c2n1 [Example 63, 7-((1-(3-(Benzyloxy)benzyl)-1H-indol-4-yl)methyl)-3H-[1,2,3]triazolo[4,5-b]pyridin-5-amine]
101 to 999 nM | Nc1cc(Cc2cccc(C(=O)NCCc3ccccc3)c2)c2nn[nH]c2n1 [Example 47, 3-((5-Amino-3H-[1,2,3]triazolo[4,5-b]pyridin-7-yl)methyl)-N-phenethylbenzamide]
101 to 999 nM | Nc1cc(Cc2ccc(Oc3ccccc3)nc2)c2nn[nH]c2n1 [Example 58, 7-((6-phenoxypyridin-3-yl)methyl)-3H-[1,2,3]triazolo [4,5-b]pyridin-5-amine]

The molecules below were run against T1, myeloperoxidase (MPO) (assay: MPO peroxidation assay (Amplex Red assay)). Conditions: not given.
Type: biochemical

Structure (SMILES) | IC50
COC(=O)c1cccc(Cc2cc(N)nc3[nH]nnc23)c1 [Example 7, Methyl 3-((5-amino-3H-[1,2,3]triazolo[4,5-b]pyridin-7-yl)methyl)benzoate] | 1 to 100 nM
Nc1cc(Cc2cccc(C(F)(F)F)c2)c2nn[nH]c2n1 [Example 26, 7-(3-(trifluorometh-yl)benzyl)-3H-[1,2,3]triazolo [4,5-b]pyridin-5-amine] | 1000 to 10000 nM
Nc1cc(Cc2cccc(-c3ccccc3)c2)c2nn[nH]c2n1 [Example 17, 7-(Biphenyl-3-ylmethyl)-3H-[1,2,3]triazolo[4,5-b]pyridin-5-amine] | 1 to 100 nM
Nc1cc(Cc2ccc3ccccc3c2)c2nn[nH]c2n1 [Example 6, 7-(naphthalen-2-ylmethyl)-3H-[1,2,3] triazolo[4,5-b]pyridin-5-amine] | 101 to 999 nM
Nc1cc(Cc2ccccc2F)c2nn[nH]c2n1 [Example 23, 7-(2-fluorobenzyl)-3H-[1,2,3]triazolo [4,5-b]pyridin-5-amine] | 1 to 100 nM
Nc1cc(Cc2cccc(Cl)c2)c2nn[nH]c2n1 [Example 2, 7-(3-chlorobenzyl)-3H-[1,2,3]triazolo [4,5-b]pyridin-5-amine] | 1 to 100 nM

Same assay, conditions: MPO peroxidation, potency range class; read-out: Amplex Red Assay IC50 value

IC50 | Structure (SMILES)
101 to 999 nM | COc1ccc(Cc2cc(N)nc3[nH]nnc23)cc1 [Example 4, 7-(4-methoxybenzyl)-3H-[1,2,3] triazolo[4,5-b]pyridin-5-amine]
101 to 999 nM | Cc1cc(C)n(-c2cccc(Cc3cc(N)nc4[nH]nnc34)c2)n1 [Example 53, 7-(3-(3,5-dimethyl-1H-pyrazol-1-yl)benzyl)-3H-[1,2,3]triazolo [4,5-b] pyridin-5-amine]
101 to 999 nM | CC(C)(C)OC(=O)N1CCCc2cc(Cc3cc(N)nc4[nH]nnc34)ccc21 [Example 12, tert-butyl 6-((5-amino-3H-[1,2,3]triazolo[4,5-b]pyridin-7-yl)methyl)-3,4-dihydroquinoline-1(2H)-carboxylate]
101 to 999 nM | Cc1ccc(-c2cccc(Cc3cc(N)nc4[nH]nnc34)c2)cc1 [Example 15, 7-((4′-methyl-[1,1′-biphenyl]-3-yl)methyl)-3H-[1,2,3]triazolo [4,5-b] pyridin-5-amine]
1 to 100 nM | Nc1cc(Cc2cccc(F)c2F)c2nn[nH]c2n1 [Example 44, 7-(2,3-difluorobenzyl)-3H-[1,2,3] triazolo[4,5-b]pyridin-5-amine]
1 to 100 nM | Nc1cc(Cc2c(F)cccc2F)c2nn[nH]c2n1 [Example 33, 7-(2,6-difluorobenzyl)-3H-[1,2,3] triazolo[4,5-b]pyridin-5-amine]
101 to 999 nM | Nc1cc(Cc2ccc3c(c2)CCC3)c2nn[nH]c2n1 [Example 22, 7-((2,3-dihydro-1H-inden-5-yl)methyl)-3H-[1,2,3]triazolo [4,5-b]pyridin-5-amine]
101 to 999 nM | Nc1cc(Cc2cccc3nn(Cc4ccccc4)cc23)c2nn[nH]c2n1 [Example 66, 7-((2-Benzyl-2H-indazol-4-yl)methyl)-3H-[1,2,3]triazolo[4,5-b]pyridin-5-amine]
101 to 999 nM | Nc1cc(Cc2ccc(-c3ccccc3)cc2)c2nn[nH]c2n1 [Example 37, 7-([1,1′-biphenyl]-4-ylmethyl)-3H-[1,2,3]triazolo [4,5-b]pyridin-5-amine]
101 to 999 nM | Cc1ccc(Cc2cc(N)nc3[nH]nnc23)cc1 [Example 3, 7-(4-methylbenzyl)-3H-[1,2,3]triazolo [4,5-b]pyridin-5-amine]
101 to 999 nM | Nc1cc(Cc2ccc(C(=O)c3ccccc3)cc2)c2nn[nH]c2n1 [Example 39, (4-((5-amino-3H-[1,2,3]triazolo [4,5-b]pyridin-7-yl)methyl)phenyl)(phenyl) methanone]
101 to 999 nM | COc1cccc(Cc2cc(N)nc3[nH]nnc23)n1 [Example 51, 7-((6-Methoxypyridin-2-yl)methyl)-3H-[1,2,3]triazolo[4,5-b]pyridin-5-amine]
1 to 100 nM | Nc1cc(Cc2cccc3c2ccn3Cc2cccc(OCc3ccccc3)c2)c2nn[nH]c2n1 [Example 63, 7-((1-(3-(Benzyloxy)benzyl)-1H-indol-4-yl)methyl)-3H-[1,2,3]triazolo[4,5-b]pyridin-5-amine]
101 to 999 nM | Nc1cc(Cc2cccc(C(=O)NCCc3ccccc3)c2)c2nn[nH]c2n1 [Example 47, 3-((5-Amino-3H-[1,2,3]triazolo[4,5-b]pyridin-7-yl)methyl)-N-phenethylbenzamide]
1000 to 10000 nM | Nc1cc(Cc2ccc(Oc3ccccc3)nc2)c2nn[nH]c2n1 [Example 58, 7-((6-phenoxypyridin-3-yl)methyl)-3H-[1,2,3]triazolo [4,5-b]pyridin-5-amine]
101 to 999 nM | Nc1cc(Cc2cccc(Oc3ccc(F)cc3)c2)c2nn[nH]c2n1 [Example 27, 7-(3-(4-fluorophenoxy)benzyl)-3H-[1,2,3]triazolo [4,5-b]pyridin-5-amine]
1 to 100 nM | Nc1cc(Cc2c(F)ccc(Cl)c2F)c2nn[nH]c2n1 [Example 18, 7-(3-chloro-2,6-difluorobenzyl)-3H-[1,2,3]triazolo [4,5-b]pyridin-5-amine]
101 to 999 nM | Nc1cc(Cc2cccc(-n3cccn3)c2)c2nn[nH]c2n1 [Example 52, 7-(3-(1H-pyrazol-1-yl)benzyl)-3H-[1,2,3]triazolo [4,5-b]pyridin-5-amine]
1 to 100 nM | Nc1cc(Cc2cccc(Cl)c2F)c2nn[nH]c2n1 [Example 45, 7-(3-chloro-2-fluorobenzyl)-3H-[1,2,3] triazolo[4,5-b]pyridin-5-amine]
101 to 999 nM | COC(=O)c1ccc(Cc2cc(N)nc3[nH]nnc23)c(OC)c1 [Example 10, methyl 4-((5-amino-3H-[1,2,3]triazolo[4,5-b]pyridin-7-yl)methyl)-3-methoxybenzo-ate]

IC50 | Structure (SMILES)
101 to 999 nM | Nc1cc(Cc2cccc(OCc3ccccc3)c2)c2nn[nH]c2n1 [Example 49, 7-(3-(Benzyloxy)benzyl)-3H-[1,2,3]triazolo[4,5-b]pyridin-5-amine]
101 to 999 nM | Cn1ncc2cc(Cc3cc(N)nc4[nH]nnc34)ccc21 [Example 68, 7-((1-Methyl-1H-indazol-5-yl)methyl)-3H-[1,2,3]triazolo[4,5-b]pyridin-5-amine]
101 to 999 nM | Cc1cccc(Cc2cc(N)nc3[nH]nnc23)n1 [Example 54, 7-((6-methylpyridin-2-yl)methyl)-3H-[1,2,3]triazolo [4,5-b]pyridin-5-amine]
101 to 999 nM | Nc1cc(Cc2ccc3cc(F)ccc3c2)c2nn[nH]c2n1 [Example 19, 7-((6-fluoronaphthalen-2-yl)methyl)-3H-[1,2,3]triazolo [4,5-b]pyridin-5-amine]
1 to 100 nM | Nc1cc(Cc2cccc3c2ccn3Cc2cccc(-c3ccccc3)c2)c2nn[nH]c2n1 [Example 61, 7-((1-([1,1′-Biphenyl]-3-ylmethyl)-1H-indol-4-yl)methyl)-3H-[1,2,3]triazolo[4,5-b]pyridin-5-amine]
101 to 999 nM | CC(C)(C)c1ccc(Cc2cc(N)nc3[nH]nnc23)cc1 [Example 35]
1000 to 10000 nM | Nc1cc(Cc2ccc(OC(F)(F)F)cc2)c2nn[nH]c2n1 [Example 36, 7-(4-(trifluorometh-oxy)benzyl)-3H-[1,2,3]triazolo [4,5-b]pyridin-5-amine]
101 to 999 nM | CCn1ccc2c(Cc3cc(N)nc4[nH]nnc34)cccc21 [Example 60, 7-((1-Ethyl-1H-indol-4-yl)methyl)-3H-[1,2,3]triazolo[4,5-b]pyridin-5-amine]
1 to 100 nM | Cc1cccc(Cc2cc(N)nc3[nH]nnc23)c1F [Example 9, 7-(2-fluoro-3-methylbenzyl)-3H-[1,2,3]triazolo [4,5-b]pyridin-5-amine]
101 to 999 nM | Nc1cc(Cc2ccc(-c3csnn3)cc2)c2nn[nH]c2n1 [Example 41, 7-(4-(1,2,3-thiadiazol-4-yl)benzyl)-3H-[1,2,3]triazolo [4,5-b]pyridin-5-amine]
101 to 999 nM | Nc1cc(Cc2cccc(C(=O)NCc3ccccc3)c2)c2nn[nH]c2n1 [Example 46, 3-((5-Amino-3H-[1,2,3]triazolo[4,5-b]pyridin-7-yl)methyl)-N-benzylbenzamide]
1 to 100 nM | Nc1cc(Cc2cccc3c2ccn3Cc2ccccc2)c2nn[nH]c2n1 [Example 59, 7-((1-Benzyl-1H-indol-4-yl)methyl)-3H-[1,2,3]triazolo[4,5-b]pyridin-5-amine]
101 to 999 nM | Nc1cc(Cc2ccc3c(c2)OCO3)c2nn[nH]c2n1 [Example 20, 7-(benzo[d][1,3]dioxol-5-ylmethyl)-3H-[1,2,3]triazolo [4,5-b]pyridin-5-amine]
1 to 100 nM | N#Cc1ccc(F)c(Cc2cc(N)nc3[nH]nnc23)c1 [Example 8, 3-((5-amino-3H-[1,2,3]triazolo [4,5-b]pyridin-7-yl)methyl)-4-fluorobenzo-nitrile]
1 to 100 nM | Nc1cc(Cc2cccc(F)c2)c2nn[nH]c2n1 [Example 24, 7-(3-fluorobenzyl)-3H-[1,2,3]triazolo [4,5-b]pyridin-5-amine]
1 to 100 nM | Nc1cc(Cc2cc(F)ccc2F)c2nn[nH]c2n1 [Example 42, 7-(2,5-difluorobenzyl)-3H-[1,2,3] triazolo[4,5-b]pyridin-5-amine]
101 to 999 nM | COc1ccc(-c2cccc(Cc3cc(N)nc4[nH]nnc34)n2)cc1 [Example 55, 7-((6-(4-methoxyphenyl)pyridin-2-yl)methyl)-3H-[1,2,3]triazolo [4,5-b] pyridin-5-amine]
101 to 999 nM | Cc1nc(-c2ccc(Cc3cc(N)nc4[nH]nnc34)cc2)no1 [Example 32, 7-(4-(5-methyl-1,2,4-oxadiazol-3-yl)benzyl)-3H-[1,2,3]triazolo [4,5-b] pyridin-5-amine]
101 to 999 nM | Nc1cc(Cc2ccccc2CS(=O)(=O)c2ccccc2)c2nn[nH]c2n1 [Example 38, 7-(2-((phenylsulfon-yl)methyl)benzyl)-3H-[1,2,3]triazolo [4,5-b]pyridin-5-amine]
101 to 999 nM | Cn1ncc2ccc(Cc3cc(N)nc4[nH]nnc34)cc21 [Example 67, 7-((1-Methyl-1H-indazol-6-yl)methyl)-3H-[1,2,3]triazolo[4,5-b]pyridin-5-amine]
